Results as given in patent US10955421B2, “Detection of membrane proteins” (Oxford University Innovation Limited, priority 2017, dated 2021).
Values belong to the molecule of their own block, whether it stands above or below them.

How the values were obtained:
[1] = system: human P2Y1 purinergic receptor (P2Y1R); experiment: Native mass spectrometry of P2Y1R ligand binding in Fos-Choline-16
Description: P2Y1R and P2Y1R-MRS2500 complex were prepared as described in Zhang et al., Nature, 2015, 520, 317.
(§1) Purified GPCRs were buffer exchanged into 50-200 mM ammonium acetate containing Fos-Choline detergents at 2 times critical micelle concentration (CMC) by using Bio-Spin size exclusion spin column (Bio-rad) prior to mass spectrometer analysis. Detergent exchange could be also performed by size exclusion chromatography equipped with FPLC system. Protein samples were fractionized by the size exclusion columns equilibrated with 50-200 mM ammonium acetate containing Fos-choline detergents at 2 times CMC, and the protein fractions were collected and concentrated by centrifugation-based protein concentrators Vivaspin.
The measurement of GPCRs was performed on a modified Synapt G1 (Waters) or a modified Q-Exactive (Thermo) mass spectrometer. The data in Examples 2 and 4 were obtained using a Q-Exactive mass spectrometer, whereas the data in Example 3 were obtained using a Synapt G1 mass spectrometer.
The Q-Exactive mass spectrometer was set up according to Gault et al. (Nat. Methods 13, 333-336, 2016). Briefly, a gentle voltage gradient was applied (injection flatapole, inter flatapole, bent flatapole, transfer multipole: 7.9, 6.94, 5.9, 4 V respectively). The acceleration voltage applied in HCD cell was optimized for GPCRs (60-150 V) to remove the detergent micelles from protein ions. Spectra were acquired with ten microscans and the noise level parameter of 3 was applied. Backing pressure was maintained at 1.05-1.3×10^−9 mBar to allow better transmission of GPCR ions.
High-resolution MS was used to probe the drug/ligand interactions of human P2Y1R purified from insect cells. By controlled application of collisional activation, intact P2Y1R was liberated from its detergent micelle, preserving the non-covalent interactions formed in solution. The phosphate-containing detergent of Example 1 (Fos-16) was used in these experiments.

NTR1 [2] = target: T1, NTR1 (Rattus norvegicus, UniProt P20789); experiment: Native mass spectrometry of PIP2 binding to NTR1 in Fos-Choline-16; conditions: after incubation of PIP2 and NTR1 in Fos-Choline-16 (FIG. 6A)
Description: as §1
PIP2 powder (Avanti) was dissolved into solvent containing chloroform, methanol and H2O with volume ratio of 20:9:1. The aliquoted PIP2 solution was dried out by gas-assisted evaporation and re-suspended into 50-200 mM ammonium acetate containing 0.00106% Fos-Choline-16, followed by sonication in water bath for 30 mins.
The measurement of GPCRs was performed on a modified Synapt G1 (Waters) or a modified Q-Exactive (Thermo) mass spectrometer. The data in Examples 2 and 4 were obtained using a Q-Exactive mass spectrometer, whereas the data in Example 3 were obtained using a Synapt G1 mass spectrometer. […]

NTR1 [3] = target: T1, NTR1; experiment: Detergent screening by neurotensin-binding assay (BODIPY-NT8-13); conditions: BODIPY-NT8-13 bound to NTR1 in detergent extract, room temperature, 1 hr (FIG. 1C)
Description: (§2) The gene fragment of rat NTR1 (wild-type, 1-424) with exogenous c-terminal Flag- and His-tag was constructed into modified pHLsec vector for transient protein overexpression. Plasmids were transfected into HEK293T cells via a liposome-based method with Lipofectamine 2000 transfection reagent and the cells were harvested 24 hrs after transfection for further experiments.
Protein extract from HEK293T cells with NTR1 overexpression was incubated with BODIPY-labelled neurotensin 8-13 (BODIPY-NT8-13) at room temperature for 1 hr. The unbound BODIPY-NT8-13 was removed by Bio-Spin size exclusion spin column (Bio-rad) and the fluorescent signal of BODIPY-NT8-13 bound to receptor was detected by fluorescence microplate reader.
Various detergents were assessed for their ability to preserve the conformation and activity of NTR1. The detergents assessed were: (1) n-dodecyl-β-D-maltoside (DDM); (2) n-undecyl-β-D-maltoside (UDM); (3) n-nonyl-β-D-glucopyranoside (NG); (4) n-octyl-β-D-glucopyranoside (OG); (5) octyl glucose neopentyl glycol (OGNG); (6) n-octyl-β-D-thioglucopyranoside (OTG); (7) tetraethylene glycol monooctyl ether (C8E4); (8) hexaethylene glycol monodecyl ether (C10E6); (9) polyethylene glycol tert-octylphenyl ether (Triton X-100); (10) lauryldimethylamine-N-oxide (LDAO); and (11) hexadecylphosphocholine (Fos-Choline-16).

NTR1 [4] = target: T1, NTR1; experiment: Detergent screening by western blotting (receptor aggregation); conditions: NTR1 solubilised from HEK293T cells in 1% detergent; compared with the other detergents tested (FIGS. 1A and B)
Description: as §2
HEK293T cells with NTR1 overexpression were lysed in lysis buffer (100 mM sodium phosphate, pH 7.2, 150 mM NaCl, 10% glycerol, 1× EDTA-free protease inhibitor cocktail from Roche) containing 1% various detergents for screening. Cell lysate was harvested after pelleting down the debris by centrifugation, and protein concentration was measured by Pierce 660 nm protein assay reagent (Pierce). Equal amounts of protein extract in different detergents were applied for western blotting to detect NTR1 by using an anti-His tag antibody. Semi-quantification was performed by Gel-pro software to quantify the protein amount and relative ratio of protein aggregation.
Various detergents were assessed for their ability to preserve the conformation and activity of NTR1. […]

[5] = 1:0.5 molar ratio of protein to ATP (FIG. 3B)
[6] = endogenous nucleotide, purified P2Y1R, UniDec deconvolution (FIG. 2A)

T1 sequence (P20789 whole entry): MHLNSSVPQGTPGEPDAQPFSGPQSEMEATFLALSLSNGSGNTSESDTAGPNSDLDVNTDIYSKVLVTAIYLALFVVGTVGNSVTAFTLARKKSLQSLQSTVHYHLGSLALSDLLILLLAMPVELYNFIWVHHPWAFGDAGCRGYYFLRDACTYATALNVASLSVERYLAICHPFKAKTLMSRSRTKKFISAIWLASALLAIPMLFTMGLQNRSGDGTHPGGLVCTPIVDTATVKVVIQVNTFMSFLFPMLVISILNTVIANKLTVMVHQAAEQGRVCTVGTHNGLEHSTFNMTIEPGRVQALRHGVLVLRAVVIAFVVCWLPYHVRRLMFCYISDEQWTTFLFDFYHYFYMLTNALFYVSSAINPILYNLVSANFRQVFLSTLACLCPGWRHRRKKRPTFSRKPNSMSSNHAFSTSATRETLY

- ADP-bound receptor converted into the ATP bound state [1, 5]: ~30%
- apo receptor converted into the ATP bound state [1, 5]: around 80%
- displacement of MRS2500 from the P2Y1R-MRS2500 complex ([1]; 1:2 molar P2Y1R:ATP, 30 min incubation at 37° C. (FIG. 4)): complete displacement of MRS2500
- further decrease of ADP binding ([1]; 2 molar excess of ATP (FIG. 3C)): 40%
- ATP-binding ratio of phosphorylated P2Y1R [1, 6]: 39.6%
- ATP-binding ratio of receptor without phosphorylation [1, 6]: 41.5%
Molecule: Nc1ncnc2c1ncn2[C@@H]1O[C@H](COP(=O)(O)OP(=O)(O)OP(=O)(O)O)[C@@H](O)[C@H]1O [ATP, adenosine 5′-triphosphate]

Molecule: PIP2
- PIP2 binding of NTR1 (NTR1 [2]): Multiple binding

- ligand binding activity (NTR1 [3]): substantially preserved
Molecule: CCCCCCCCCCCCCCCCOP(=O)([O-])OCC[N+](C)(C)C [Fos-Choline-16, n-hexadecylphosphocholine]
- receptor aggregation and oligomerisation (NTR1 [4]): less receptor aggregation and oligomerisation

Molecule: CNc1nc(I)nc2c1ncn2[C@H]1C[C@H](OP(=O)(O)O)[C@]2(COP(=O)(O)O)C[C@H]12 [MRS2500, (1′R2′S,4′S,5′S)-4-(2-iodo-6-methylamino-purine-9-yl)-1-[(phosphato)methyl] 2(phosphato)bicycle[3.1.0]-hexane]
- ADP binding in the presence of the drug ([1]; P2Y1R purified in the presence of MRS2500): No ADP binding was detected
- percentage of interaction with P2Y1R ([1]; P2Y1R purified in the presence of MRS2500 (FIG. 2B)): 100 percentage
